According to patent US20200239412A1, “NEW DERIVATES OF DHAA WITH ELECTROSTATIC TUNING” (priority 2017, published 2020):
Values joined by “and” are separate entries in the source; they are usually repeats but may differ in a detail not shown here. Equal values may be shown once. Where a name gives a salt, the structure may show the parent alone.

What was measured:
Type in all cases: cell-based
[1] = target: 3R Shaker Kv channel (M356R/A359R) (Drosophila melanogaster, UniProt P08510, A359R/DEL6-46/M356R); test: in vitro; conditions: for G(V) shift: mean; for pKa at 100 μM: Drosophila, functional pH dependence, read-out: Functional pKa (pH where half of the maximum G(V) shift was achieved)
3R Shaker Kv channel (M356R/A359R), sequence (P08510 other isoform, or with tags, fused parts or gaps DEL6-46/M356R/A359R): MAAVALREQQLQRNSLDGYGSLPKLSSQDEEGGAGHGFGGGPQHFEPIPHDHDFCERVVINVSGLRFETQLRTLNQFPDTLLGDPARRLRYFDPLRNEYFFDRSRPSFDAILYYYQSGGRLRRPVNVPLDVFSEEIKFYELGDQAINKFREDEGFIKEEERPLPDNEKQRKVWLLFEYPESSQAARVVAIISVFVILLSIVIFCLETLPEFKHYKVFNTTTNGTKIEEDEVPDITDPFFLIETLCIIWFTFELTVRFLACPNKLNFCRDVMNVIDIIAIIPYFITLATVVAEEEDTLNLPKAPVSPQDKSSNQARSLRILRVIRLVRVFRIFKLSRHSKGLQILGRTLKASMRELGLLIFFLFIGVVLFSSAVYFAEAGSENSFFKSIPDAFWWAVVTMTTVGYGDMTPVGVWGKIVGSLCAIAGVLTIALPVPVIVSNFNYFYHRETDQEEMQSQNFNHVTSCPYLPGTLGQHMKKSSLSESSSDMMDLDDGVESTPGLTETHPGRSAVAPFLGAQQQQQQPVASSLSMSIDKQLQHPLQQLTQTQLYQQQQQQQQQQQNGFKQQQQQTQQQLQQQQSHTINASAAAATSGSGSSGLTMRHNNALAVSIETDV
Source text: (§1) Experiments were made with the Shaker H4 channel incapable of fast N-type inactivation due to a Δ6-46 deletion, referred to as the wt Shaker Kv channel. The 3R Shaker Kv channel with two additional positively charged arginines (M356R/A359R) in the extracellular end of S4, was also used.
(§2) For the Shaker channels, Bluescript II KS(+) plasmid was linearized with HindIII and synthesis of cRNA were made with the T7 mMessage mMachine kit (Ambion, Austin, Tex.). Point mutations around S4, on the Shaker Kv channel, were introduced using QuickChange Site-Directed Mutagenesis Kit (Agilent Technologies, Santa Clara, Calif.) and sequencing were used for verification.
(§3) 50 nl cRNA was injected into Xenopus laevis oocytes using a Nanoject injector (Drummond Scientific, Broomall, Pa.) and the oocytes were stored at 8° C. in a modified Barth's solution (MBS) before experiments (16° C., M-channel, 1-2 days). The MBS contained (in mM): 88 NaCl, 1 KCl, 2.4 NaHCO3, 15 HEPES, 0.33 Ca(NO3)2, 0.41 CaCl2), and 0.82 MgSO4, pH was adjusted to 7.5 by NaOH and the MBS was supplemented sodium pyruvate (2.5 mM). All animal experiments were approved by the Linkoping's local Animal Care and Use Committee.
(§4) Currents were measured 1-6 days after cRNA injection using the two-electrode voltage clamp technique (GeneClamp 500B amplifier, Axon instruments). Signals were low pass filtered at 5 kHz and digitized by a Digidata 1440A converter (Molecular Devices, Sunnyvale, Calif.). The amplifiers leak compensation was used and Clampex 10.2 software (Molecular Devices) was used to obtain data and create voltage protocols. The extracellular control solution contained (in mM): 1 KCl, 88 NaCl, 0.8 MgCl2, 0.4 CaCl2) and 15 HEPES. pH were adjusted with NaOH. Electrode pipettes were made from borosilicate glass capillaries (Harvard apparatus, Kent, UK) using a two stage electrode puller (Narishige, Tokyo, Japan) and resistance was between 0.5-2.0 MO once filled with 3 M KCl solution. In the voltage protocol for the wt and 3R Shaker channel, holding potential was set to −80 mV and steady-state currents were measured at voltages between −80 and +50 mV (wt Shaker Kv channel) or +70 mV (3R Shaker Kv channel), using 5 mV increments, 100 ms. […] Physiol. 143, 173-182 (2014). For the M-channel, holding potential was set to −100 mV, test-voltages were measured between −120 and +50 mV (10 mV increments for 2 s) and tail currents were measured at −30 mV.
(§5) Control solution was perfused to the recording chamber (0.5 ml/min) and the test solution was added manually with a syringe, in a volume large enough to replace the control solution manifold. Resin acids compounds were dissolved in DMSO (100 mM) and stored at −20° C. Just prior to experiment the compound was diluted to desired concentration in control solution. Recovery was measured after continuously perfusion of control solution, maximum 5 min. All recordings were made with the perfusion off. Experiments were carried out in room temperature (20-23° C.) and chemicals were purchased from Sigma Aldrich if not stated otherwise.
(§6) Currents were leak subtracted and steady-state currents were measured 80-86 ms after onset of the test voltages (Clampfit 10.5, Molecular Devices). K conductance, GK, was calculated using,
(§7) where IK is the steady-state current, V the absolute membrane voltage and VK the reversal potential for K ions (−80 mV), and the following Boltzmann curve was used to fit the data:
(§8) GK(V)=A/(1+exp((V1/2−V)/s)^n (2)
(§9) where A is the amplitude of the curve, V1/2 the midpoint when n=1, s the slope and n an exponent for better curve fitting, set to n=4. The voltage shift was calculated at 10% of maximal conductance in control curve.
(§10) To quantify the concentration dependence or pH dependence of the GK(V) shifts the following equation was used:
(§11) ΔVG(V)=ΔVMAX/(1+c1/2/c), (3)

[2] = target: wt Shaker Kv channel (Shaker H4, Δ6-46) (Drosophila melanogaster, UniProt P08510, DEL6-46); test: Two-electrode voltage clamp, G(V) shift on wt Shaker Kv channel expressed in Xenopus laevis oocytes; conditions: mean
wt Shaker Kv channel (Shaker H4, Δ6-46), sequence (P08510 other isoform, or with tags, fused parts or gaps DEL6-46): as the sequence (P08510 other isoform, or with tags, fused parts or gaps DEL6-46/M356R/A359R) above, with R315M, R318A counted along it
Source text: as §1, §2, §3, §4, §5, §6, §7, §8, §9, §10, §11

hKv7.2/Kv7.3 (M-channel) = target: T1, hKv7.2/Kv7.3 (M-channel) (Homo sapiens, UniProt O43525+O43526); test: Two-electrode voltage clamp, G(V) shift on human M-channel expressed in Xenopus laevis oocytes; conditions: for G(V) shift: mean
T1 construct: expressed in transfected cells; host or cells: Xenopus laevis oocytes (cRNAs mixed 1:1)
Description: Experiments were also made with the human hKv7.2/Kv7.3, referred to as the M-channel. cRNAs were mixed in a 1:1 molar ratio before injection into oocytes. hKv7.2 [GenBank Acc. No. NM_004518]. hKv7.3 [GenBank Acc. No NM_004519].
as §3, §4, §5
For the M channel tail currents were measured 18 ms after onset and then plotted against the test voltage. The Boltzmann curve (Eq. 2) was used to fit data and the slope was set to shared value between control and test compound. V1/2 was used to calculate the GK(V) shift.
as §10, §11
where ΔVG(v) is the voltage shift, ΔVMAX is the amplitude of the curve, c the concentration, c1/2 the concentration at which half maximum response occur. For compounds with no pH dependence the data was fitted with a horizontal line, with the slope set to 0.

## CC(C)C1=CC2=CC[C@@H]3[C@](C)(CCC[C@@]3(C)C(=O)O)[C@H]2CC1 [AA, abietic acid, reference compound]
[1]; pH 7.4, 100 μM
  G(V) shift: −16.05 mV

## CC(C)c1ccc2c(c1)CC[C@H]1[C@](C)(C(=O)NCC(=O)O)CCC[C@]21C [Wu117, ((1R,4aS,10aR)-7-isopropyl-1,4a-dimethyl-1,2,3,4,4a,9,10,10a-octahydrophenanthrene-1-carbonyl)glycine]
[1]; pH 7.4, 100 μM
  G(V) shift: −7.27 mV
[1]; pH 10, 100 μM
  G(V) shift: −5.27 mV
[2]; pH 10, 100 μM
  G(V) shift: −0.80 mV

## CC(C)c1ccc2c(c1)CC[C@H]1[C@](C)(C(=O)N[C@@H](CC(=O)O)C(=O)O)CCC[C@]21C [Wu148, ((1R,4aS,10aR)-7-isopropyl-1,4a-dimethyl-1,2,3,4,4a,9,10,10a-octahydrophenanthrene-1-carbonyl)-L-aspartic acid]
[1]; pH 5.5, 100 μM
  G(V) shift: −13.30 mV
[1]; pH 6.5, 100 μM
  G(V) shift: −14.23 mV
[1]; pH 7.4, 100 μM
  G(V) shift: −14.47 mV
[1]; pH 9, 100 μM
  G(V) shift: −11.20 mV
[1]; pH 10, 100 μM
  G(V) shift: −9.53 mV
[2]; pH 7.4, 100 μM
  G(V) shift: −0.73 mV

## CC(C)c1ccc2c(c1)CC[C@H]1[C@](C)(C(=O)NCCCC(=O)O)CCC[C@]21C [Wu149, 4-((1R,4aS,10aR)-7-isopropyl-1,4a-dimethyl-1,2,3,4,4a,9,10,10a-octahydrophenanthrene-1-carboxamido)butanoic Acid]
[1]; pH 7.4, 100 μM
  G(V) shift: −4.80 mV
[1]; pH 7.4, 100 μM, single recording of FIG. 2C
  G(V) shift (example recording, normalized G(V) curves): −5.3 mV
[1]; pH 10, 100 μM
  G(V) shift: −5.17 mV
[2]; pH 10, 100 μM
  G(V) shift: −0.57 mV

## CC(C)c1ccc2c(c1)CC[C@H]1[C@](C)(C(=O)NCCCS(=O)(=O)O)CCC[C@]21C [Wu150, 3-((1R,4aS,10aR)-7-isopropyl-1,4a-dimethyl-1,2,3,4,4a,9,10,10a-octahydrophenanthrene-1-carboxamido)propane-1-sulfonic acid]
[1]; pH 7.4, 100 μM
  G(V) shift: −9.98 mV
[2]; pH 7.4, 100 μM
  G(V) shift: −4.18 mV

## CC(C)c1ccc2c(c1)CC[C@H]1[C@](C)(C(=O)NCCCC(=O)NCCCC(=O)O)CCC[C@]21C [Wu151, 4-(4-((1R,4aS,10aR)-7-isopropyl-1,4a-dimethyl-1,2,3,4,4a,9,10,10a-octahydrophenanthrene-1-carboxamido)butanamido)butanoic Acid]
[1]; pH 7.4, 100 μM
  G(V) shift: −2.53 mV

## CC(C)c1ccc2c(c1)CC[C@H]1[C@](C)(C(=O)NCCC(=O)O)CCC[C@]21C [Wu152, 3-((1R,4aS,10aR)-7-isopropyl-1,4a-dimethyl-1,2,3,4,4a,9,10,10a-octahydrophenanthrene-1-carboxamido)propanoic Acid]
[1]; pH 7.4, 100 μM
  G(V) shift: −6.2 mV
[1]; pH 10, 100 μM
  G(V) shift: −5.20 mV
[2]; pH 10, 100 μM
  G(V) shift: −1.17 mV

## CC(C)c1ccc2c(c1)CC[C@H]1[C@](C)(C(=O)NCCC(=O)NCCC(=O)O)CCC[C@]21C [Wu153, 3-(3-((1R,4aS,10aR)-7-isopropyl-1,4a-dimethyl-1,2,3,4,4a,9,10,10a-octahydrophenanthrene-1-carboxamido)propanamido)propanoic Acid]
[1]; pH 7.4, 100 μM
  G(V) shift: −2.54 mV

## CC(C)c1ccc2c(c1)CC[C@H]1[C@](C)(C(=O)NCCS(=O)(=O)O)CCC[C@]21C [Wu154, 2-((1R,4aS,10aR)-7-isopropyl-1,4a-dimethyl-1,2,3,4,4a,9,10,10a-octahydrophenanthrene-1-carboxamido)ethane-1-sulfonic Acid]
[1]
  pKa at 100 μM: < 7.4
[1]; pH 7.4, 100 μM
  G(V) shift: −9.85 mV
hKv7.2/Kv7.3 (M-channel); pH 7.4, 100 μM
  G(V) shift: −4.60 mV
[2]; pH 7.4, 100 μM
  G(V) shift: −2.48 mV

## CC(C)C1=CC2=CC[C@H]3[C@](C)(C(=O)NCCCC(=O)O)CCC[C@]3(C)C2CC1 (stereo partly drawn) [Wu157, 4-((1R,4aR,4bR,10aR)-7-isopropyl-1,4a-dimethyl-1,2,3,4,4a,4b,10,10a-decahydrophenanthrene-1-carboxamido)butanoic Acid]
[1]; pH 7.4, 100 μM
  G(V) shift: −7.10 mV

## CC(C)c1ccc2c(c1)CC[C@H]1[C@](C)(C(=O)NCP(=O)(O)O)CCC[C@]21C [Wu158, (((1R,4aS,10aR)-7-isopropyl-1,4a-dimethyl-1,2,3,4,4a,9,10,10a-octahydrophenanthrene-1-carboxamido)methyl)phosphonic Acid]
[1]; pH 7.4, 100 μM
  G(V) shift: −4.94 mV

## CC(C)c1ccc2c(c1)CC[C@H]1[C@](C)(COP(=O)(O)O)CCC[C@]21C [Wu162, ((1R,4aS,10aR)-7-isopropyl-1,4a-dimethyl-1,2,3,4,4a,9,10,10a-octahydrophenanthren-1-yl)methyl Dihydrogen Phosphate]
[1]; pH 6.5, 100 μM
  G(V) shift: −10.03 mV
[1]; pH 7.4, 100 μM
  G(V) shift: −11.80 mV
[1]; pH 9, 100 μM
  G(V) shift: −11.55 mV
[1]; pH 10, 100 μM
  G(V) shift: −8.93 mV
[2]; pH 7.4, 100 μM
  G(V) shift: −1.18 mV

## CC(C)c1ccc2c(c1)CCC1[C@](C)(/C=C/C(=O)O)CCC[C@]21C (stereo partly drawn) [Wu176, (E)-3-((1S,4aS)-7-isopropyl-1,4a-dimethyl-1,2,3,4,4a,9,10,10a-octahydrophenanthren-1-yl)acrylic Acid]
[1]
  pKa at 100 μM: 6.8
[1]; pH 5.5, 100 μM
  G(V) shift: 2.80 mV
[1]; pH 7.4, 100 μM
  G(V) shift: −15.16 mV
[1]; pH 10, 100 μM
  G(V) shift: −17.10 mV

## CC(C)c1ccc2c(c1)CCC1[C@](C)(CC(=O)O)CCC[C@]21C (stereo partly drawn) [Wu180, 2-((1S,4aS)-7-isopropyl-1,4a-dimethyl-1,2,3,4,4a,9,10,10a-octahydrophenanthren-1-yl)acetic acid]
[1]
  pKa at 100 μM: 7.3
[1]; pH 5.5, 100 μM
  G(V) shift: 1.575 mV
[1]; pH 7.4, 100 μM
  G(V) shift: −11.04 mV
[1]; pH 10, 100 μM
  G(V) shift: −19.18 mV
[2]; pH 10, 100 μM
  G(V) shift: −2.40 mV

## C[C@@]1(COS(=O)(=O)O)CCC[C@]2(C)c3cc(Cl)c(Cl)c(Cl)c3CC[C@@H]12 [Wu181, ((1R,4aS,10aR)-6,7,8-trichloro-1,4a-dimethyl-2,3,4,9,10,10a-hexahydrophenanthrene-1-yl)methyl hydrogen sulfate]
[1]; pH 7.4
  Increase of affinity compared to DHAA (factor): 16
  Increase of affinity compared to Wu161 and Wu50 (factor): 6
  Increase of amplitude/efficacy compared to DHAA (factor): 2.0
  Increased G(V) shift at low concentrations compared to DHAA (factor): 32
[1]; pH 7.4, 3 μM
  G(V) shift: −21.3±2.9 mV
[1]; pH 7.4, 10 μM
  G(V) shift: −31.90 mV
[1]; pH 7.4, concentration-response of G(V) shift
  ΔVMAX (maximum shift): −53.6 mV and −53.6±4.0 mV
[1]; pH 7.4, concentration-response of G(V) shift, read-out: c1/2 (half-maximal concentration)
  EC50: 6.1 µM
hKv7.2/Kv7.3 (M-channel); concentration-response of G(V) shift
  ΔVMAX (maximum shift): −42.1 mV and −42.1±5.7 mV
hKv7.2/Kv7.3 (M-channel); concentration-response of G(V) shift, read-out: c1/2 (half-maximal concentration)
  EC50: 12.4 µM
hKv7.2/Kv7.3 (M-channel); pH 7.4, 10 μM
  G(V) shift: −18.9±2.4 mV and −18.90 mV
